# Paper doi:10.1101/2024.11.19.623840, “Targeting GOF p53 and c-MYC through LZK Inhibition or Degradation Suppresses Head and Neck Tumor Growth” (bioRxiv, 2024)
# Legend:
# [1] = target: T1, LZK (leucine zipper-bearing kinase) (Homo sapiens, UniProt O43283); assay: KdELECT KINOMEscan competition binding assay
# T1 construct: gene MAP3K13
# T1 sequence (O43283 1-966): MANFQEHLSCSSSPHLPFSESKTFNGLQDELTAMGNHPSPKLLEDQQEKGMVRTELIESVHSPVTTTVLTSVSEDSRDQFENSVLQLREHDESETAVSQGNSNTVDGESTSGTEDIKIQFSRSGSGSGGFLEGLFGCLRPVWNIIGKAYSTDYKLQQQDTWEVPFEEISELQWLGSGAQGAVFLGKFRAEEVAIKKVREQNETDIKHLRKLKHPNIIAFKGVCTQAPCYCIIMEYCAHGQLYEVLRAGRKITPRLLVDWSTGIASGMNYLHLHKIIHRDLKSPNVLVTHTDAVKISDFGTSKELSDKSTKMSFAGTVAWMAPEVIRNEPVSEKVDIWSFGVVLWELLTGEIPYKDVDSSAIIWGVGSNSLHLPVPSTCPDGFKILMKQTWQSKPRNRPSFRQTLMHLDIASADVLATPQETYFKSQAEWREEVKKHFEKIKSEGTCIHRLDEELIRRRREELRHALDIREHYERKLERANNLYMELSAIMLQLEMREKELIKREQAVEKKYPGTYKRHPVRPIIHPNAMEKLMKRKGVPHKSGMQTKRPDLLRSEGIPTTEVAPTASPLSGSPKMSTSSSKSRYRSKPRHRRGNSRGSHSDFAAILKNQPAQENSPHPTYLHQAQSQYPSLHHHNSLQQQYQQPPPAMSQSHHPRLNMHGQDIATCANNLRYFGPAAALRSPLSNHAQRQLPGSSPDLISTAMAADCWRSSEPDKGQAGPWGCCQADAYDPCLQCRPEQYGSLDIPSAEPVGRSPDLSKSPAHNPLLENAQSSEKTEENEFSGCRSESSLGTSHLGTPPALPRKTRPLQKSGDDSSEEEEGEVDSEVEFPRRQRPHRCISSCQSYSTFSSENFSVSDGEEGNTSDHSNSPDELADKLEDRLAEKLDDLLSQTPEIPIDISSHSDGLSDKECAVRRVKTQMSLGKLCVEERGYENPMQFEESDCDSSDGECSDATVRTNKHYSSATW
# [2] = target: T1, LZK (leucine zipper-bearing kinase); assay: LZK degradation Western blot in CAL33 cells with dox-induced LZK; format: cell-based
Kd [1] [nM],Structure (SMILES),LZK degradation Western blot in CAL33 cells with dox-induced LZK [2]
35,Cc1ncsc1-c1ccc([C@H](C)NC(=O)[C@@H]2C[C@@H](O)CN2C(=O)[C@@H](NC(=O)CCCCCCC(=O)N2CCC(c3cc(Nc4cc(C#N)ccn4)nc(N4CCC(F)(F)C4)c3)CC2)C(C)(C)C)cc1 [PROTAC-21A],–
–,N#Cc1ccnc(Nc2cc(C3CCN(C(=O)CCCCCCC(=O)NCCCCNC(=O)CNc4cccc5c4C(=O)N(C4CCC(=O)NC4=O)C5=O)CC3)cc(N3CCC(F)(F)C3)n2)c1 (stereo not shown) [PROTAC-21B],"PROTAC-21B, PROTAC-21C and PROTAC-21D (Figure 5B) also promoted degradation of LZK at higher concentrations"
–,Cc1ncsc1-c1ccc([C@H](C)NC(=O)[C@@H]2C[C@@H](O)CN2C(=O)[C@@H](NC(=O)c2cncc(C(=O)N3CCC(c4cc(Nc5cc(C#N)ccn5)nc(N5CCC(F)(F)C5)c4)CC3)c2)C(C)(C)C)cc1 [PROTAC-21C],"PROTAC-21B, PROTAC-21C and PROTAC-21D (Figure 5B) also promoted degradation of LZK at higher concentrations"
–,N#Cc1ccnc(Nc2cc(C3CCN(C(=O)c4cncc(C(=O)NCCCCNC(=O)CNc5cccc6c5C(=O)N(C5CCC(=O)NC5=O)C6=O)c4)CC3)cc(N3CCC(F)(F)C3)n2)c1 (stereo not shown) [PROTAC-21D],"PROTAC-21B, PROTAC-21C and PROTAC-21D (Figure 5B) also promoted degradation of LZK at higher concentrations"
